Target: T1, FgGcn5 (Fusarium graminearum, UniProt I1R9W6)
T1 construct: gene FGRAMPH1_01T00753
Conditions: inhibitor; 30 ug/ml PCN; recombinant GST-H3 substrate, 5 mM acetyl-CoA, Tris-HCl pH 8.0, 37 C, 45 min

T1 sequence (I1R9W6 1-396): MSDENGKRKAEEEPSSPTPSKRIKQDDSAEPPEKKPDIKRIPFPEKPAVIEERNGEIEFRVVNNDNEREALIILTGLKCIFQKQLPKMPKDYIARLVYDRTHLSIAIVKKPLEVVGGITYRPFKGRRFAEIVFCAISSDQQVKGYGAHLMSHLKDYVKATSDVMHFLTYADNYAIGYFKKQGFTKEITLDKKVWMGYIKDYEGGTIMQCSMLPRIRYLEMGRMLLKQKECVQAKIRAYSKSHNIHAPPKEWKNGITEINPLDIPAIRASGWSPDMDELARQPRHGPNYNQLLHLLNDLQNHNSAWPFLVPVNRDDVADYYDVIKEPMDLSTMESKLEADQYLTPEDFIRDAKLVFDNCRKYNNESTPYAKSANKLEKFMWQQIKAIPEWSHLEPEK

NC(=O)c1cccc2nc3ccccc3nc12 [PCN, phenazine-1-carboxamide]
in vitro histone H3 acetylation assay, immunoblot (H3 pan-acetyl and H3K18ac): demonstrating that PCN was able to inhibit the HAT activity of FgGcn5 in vitro
